Measurements taken from publication PMC10504495 (iScience, 2023).
pKd: −log10 of the molar value.

What was measured:
[1] = target: T1, SIRT3 (Homo sapiens, UniProt Q9NTG7); assay: NAD+ consumption/cycling assay; type: biochemical; conditions: for delactylation activity in words: NAD+ consumption/cycling, 3 h, Figures 1A, S2
T1 construct: SIRT3 (118–399 aa); 6xHis with TEV site (pET-N-6xHis-TEV vector) (N, cleaved yes); made in house; host or cells: E. coli BL21-CodonPlus (DE3)-RIL
T1 sequence (Q9NTG7 118-399): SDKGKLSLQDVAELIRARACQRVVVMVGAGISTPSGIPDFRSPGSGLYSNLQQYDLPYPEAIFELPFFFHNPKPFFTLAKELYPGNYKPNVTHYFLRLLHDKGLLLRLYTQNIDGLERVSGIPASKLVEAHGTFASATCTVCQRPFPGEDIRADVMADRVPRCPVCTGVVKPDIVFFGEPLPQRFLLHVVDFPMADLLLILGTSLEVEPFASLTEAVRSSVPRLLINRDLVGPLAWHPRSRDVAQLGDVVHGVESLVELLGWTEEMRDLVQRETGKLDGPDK
Protocol: To screen the delactylation activity of Sirtuins, we employed a modified[35] NAD^+ cycling assay to measure the amount of unused NAD^+ levels after Sirtuins’ consumption reactions. This assay involves the conversion of NAD^+ to NADH by alcohol dehydrogenase, followed by the conversion of NADH to NAD^+ by NADH oxidoreductase, diaphorase with resazurin as an electron acceptor. The reduced resazurin is then measured as resorufin, which has a high fluorescence characteristic.[36]
To perform the NAD^+ consumption assay, 50 μM recombinant Sirtuins were co-incubated with 500 μM Kla peptides and 100 μM NAD^+ in 150 NaCl, 20 mM Tris (pH = 7.5) buffer for 3 h or overnight at 37°C. Then, hydrochloric acid, final concentration at 150 mM, was added to terminate the reaction. As for the cycling assay, 200 μL reaction buffer containing 100 mM Na2HPO4 (pH = 8.0), 10 μM resazurin, 10 μM flavin mononucleotide (FMN), 1% absolute ethanol, 66.5 μg/mL alcohol dehydrogenase and 5 μg/mL diaphorase was simultaneously mixed with 10 μL of NAD^+ consumption mixtures in 96-well white plate. Then, the plate was immediately measured by fluorescence spectrophotometer under excitation 549 nm, emission 576 nm condition.

[2] = system: lysine lactylation; conditions: cells, 24 h treatment; cited from earlier work
From the text: Chemical affinity-based probes are powerful tools that convert weak protein-ligand interactions into robust covalent chemical linkages, thus enabling the capture of transient interactions. […] We tried to use this la ...

[3] = target: human SIRT1 core region (234-505 aa) (human) (UniProt Q96EB6); assay: ITC; 40 uL of 2 mM peptide in 20 injections titrated into 200 uL of 30 uM Sirtuin in the cell; 25 C; Tris pH 7.5, 150 mM NaCl; MicroCal PEAQ-ITC analysis software
[4] = target: human SIRT2 (50-356 aa) (human) (UniProt Q8IXJ6); assay: as above
[5] = target: T2, SIRT1 (Homo sapiens, UniProt Q96EB6); assay: HPLC/LC-MS delactylation (erased ratio); type: biochemical; conditions: 100 μM peptide, 200 nM SIRT1, 37°C, 3 h
T2 construct: the human SIRT1 core region (234–505 aa); SUMO (pET-28a-sumo vector) (cleaved yes); made in house; host or cells: E. coli BL21-CodonPlus (DE3)-RIL
T2 sequence (Q96EB6 234-505): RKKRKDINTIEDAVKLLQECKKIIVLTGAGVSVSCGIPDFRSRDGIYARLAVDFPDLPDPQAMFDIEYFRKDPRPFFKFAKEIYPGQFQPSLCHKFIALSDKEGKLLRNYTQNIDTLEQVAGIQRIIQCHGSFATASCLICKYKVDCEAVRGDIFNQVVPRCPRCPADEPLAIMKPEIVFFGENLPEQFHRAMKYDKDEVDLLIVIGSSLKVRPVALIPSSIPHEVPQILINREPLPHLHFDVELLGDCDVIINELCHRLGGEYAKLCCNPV
From the text: (§1) To prepare for the enzymatic assays and crystallization, the human SIRT1 core region (234–505 aa), SIRT2 (50–356 aa), SIRT5 (32–302), and full-length SIRT7 were cloned into a pET-28a-sumo vector, while SIRT3 (118–399 aa) and full-length SIRT6 were cloned into a pET-N-6xHis-TEV (Tobacco etch virus) vector. These vectors were then transformed and expressed in BL21-CodonPlus (DE3)-RIL competent cells. The recombinant proteins were purified via affinity and ion exchange purification, followed by gel filtration. To remove tags during purification, TEV, and sumo protease were utilized. The purified recombinant human Sirtuins were then concentrated to a final concentration of 10 mg/mL and stored at −80°C freezer for use in the following experiments.
(§2) LC-MS analysis was performed to test and verify the delactylation activity of Sirtuins. The lactyl peptides used in LC-MS assay was added 2 additional tryptophan residues at the N- and C- terminus to enhance the HPLC absorption sensitiveness. After incubating the peptides with Sirtuins/HDAC3 at 37°C for 3 h. The reaction was halted by methanol, and LC-MS was used to analyze the erased ratio of different peptides.

[6] = system: HDAC3/NCOR2; assay: HPLC/LC-MS delactylation (erased ratio); type: biochemical; conditions: 100 μM peptide, 200 nM HDAC3/NCOR2, 37°C, 3 h; in comparison with Sirtuins
Protocol: as §2

[7] = target: T1, SIRT3; assay: Kinetic study by HPLC, Lineweaver-Burk; type: biochemical; conditions: 10-200 μM peptide, 200 nM SIRT3, Tris pH 7.4, 37°C, 40 min, HPLC 280 nm, 3 replicates
From the text: as §1
To perform the kinetic study, the erasing rate was determined using the HPLC method. The KM and kcat values were then computed using the Lineweaver-Burk method.[37] […] The erased rate was evaluated by HPLC, and integrations at 280 nm were recorded to give the erased ratio. The kinetic parameters were then obtained using the formula: 1/v=(KM/Vmax)(1/[S])+1/Vmax .

[8] = target: T1, SIRT3; assay: HPLC/LC-MS delactylation (erased ratio); type: biochemical; conditions: 100 μM peptide, 200 nM SIRT3, 37°C, 3 h; compared with other Sirtuins
From the text: as §1, §2

[9] = target: T3, SIRT2 (Homo sapiens, UniProt Q8IXJ6); assay: HPLC/LC-MS delactylation (erased ratio); type: biochemical; conditions: 100 μM peptide, 200 nM SIRT2, 37°C, 3 h
T3 construct: SIRT2 (50–356 aa); SUMO (pET-28a-sumo vector) (cleaved yes); made in house; host or cells: E. coli BL21-CodonPlus (DE3)-RIL
T3 sequence (Q8IXJ6 50-356): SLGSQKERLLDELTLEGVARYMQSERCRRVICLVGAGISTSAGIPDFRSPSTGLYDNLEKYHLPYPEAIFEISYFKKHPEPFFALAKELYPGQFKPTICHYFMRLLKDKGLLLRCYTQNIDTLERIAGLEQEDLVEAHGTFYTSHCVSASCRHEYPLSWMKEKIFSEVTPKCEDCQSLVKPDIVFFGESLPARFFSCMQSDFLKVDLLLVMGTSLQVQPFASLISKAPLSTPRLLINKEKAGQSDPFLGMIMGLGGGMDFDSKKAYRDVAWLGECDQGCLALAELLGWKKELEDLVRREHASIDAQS
From the text: as §1, §2

[10] = target: T2, SIRT1; assay: NAD+ consumption/cycling assay; type: biochemical; conditions: overnight (≥12 h)
From the text: as §1
To screen the delactylation activity of Sirtuins, we employed a modified[35] NAD^+ cycling assay to measure the amount of unused NAD^+ levels after Sirtuins’ consumption reactions. […] The reduced resazurin is then measured as resorufin, which has a high fluorescence characteristic.[36]
To perform the NAD^+ consumption assay, 50 μM recombinant Sirtuins were co-incubated with 500 μM Kla peptides and 100 μM NAD^+ in […], 20 mM Tris (pH = 7.5) buffer for 3 h or overnight at 37°C. […] Then, the plate was immediately measured by fluorescence spectrophotometer under excitation 549 nm, emission 576 nm condition.

WKQLATK (L/D-lactic acid) AARKW [H3K23la, lactyl-lysine H3K23 peptide]
delactylation activity in words [1]: higher delactylation activity

CC(O)C(=O)[O-].[Na+] (stereo not drawn) [sodium lactate]
induction of lysine lactylation [2]: will induce detectable levels of lysine lactylation

H3K9ac peptide
pKd [3]: 4.03
pKd [4]: 4.37

KGGAK (L/D lactic acid) RHRK [H4K16la, lactyl-lysine H4K16 peptide; NAD+ assay and ITC]
hydrolytic activity, HPLC [5]: slight hydrolytic activity
delactylation activity in words [1]: higher delactylation activity
NAD+ consumption overnight in words ([1]; overnight (≥12 h)): consumed much higher level of NAD^+
in vitro delactylation activity, HPLC [6]: highest in vitro delactylation activity
kcat [7]: 0.08 ± 0.008 s⁻¹
Vmax ([7]; Lineweaver-Burk): 0.925 ± 0.101 µmol/L/min

WKGLGK (L/D-lactic acid) GGAKW [H4K12la, lactyl-lysine H4K12 peptide]
erased ratio / hydrolytic activity, HPLC [8]: didn’t show any hydrolytic activity
hydrolytic activity, HPLC [5]: didn’t show any hydrolytic activity
hydrolytic activity, HPLC [9]: didn’t show any hydrolytic activity

QTARK (L/D lactic acid) STGG [H3K9la, lactyl-lysine H3K9 peptide; Trp-flanked version used in HPLC-MS]
hydrolytic activity, HPLC [5]: slight hydrolytic activity
NAD+ consumption overnight in words [10]: consumed much higher level of NAD^+
